Columns and labels:
Design in all cases: species or system SD rats
serotonin S2 receptor = target: T1, serotonin S2 receptor (Rattus norvegicus, UniProt P14842); experiment: serotonin S2 receptor binding test ([3H] Ketanserin Binding Test); details: 1 nM [3H] Ketanserin, rat cortex, 37° C., 15 minutes
T1 construct: The receptor fraction prepared from the cortex was molten and suspended; from tissue; host or cells: cerebral cortex of SD rats (membrane fraction)
Procedure, shortened: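 Rat (SD, 6–8 weeks) cortical membranes in 50 mM Tris-HCl pH 7.4 were incubated with 1 nM [3H]ketanserin for 15 min at 37 °C, then filtered and counted. Nonspecific binding was defined with methysergide. IC50 was obtained by probit analysis and converted to Ki using the Scatchard-derived Kd.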

dopamine D2 receptor = target: T2, dopamine D2 receptor (Rattus norvegicus, UniProt P61169); experiment: dopamine D2 receptor binding test ([3H] Spiperone Binding Test); details: 1 nM [3H] Spiperone, rat corpus striatum, room temperature, 60 minutes; read-out: Ki value, dopamine D2 receptor
T2 construct: the receptor fraction prepared from the corpus striatum was molten and suspended; from tissue; host or cells: corpus striatum of SD rats (membrane fraction)
Procedure, shortened: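 Rat (SD, 6–8 weeks) corpus striatum membranes in 50 mM Krebs-Tris pH 7.4 were incubated with 1 nM [3H]spiperone at room temperature for 60 minutes, with nonspecific binding defined by excess spiperone. IC50 came from probit analysis; Ki was derived using radioligand concentration and Scatchard Kd.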

adrenergic α1 receptor = adrenergic α1 receptor binding test ([3H] Prazosin Binding Test); details: 1 nM [3H] Prazosin, rat cortex, room temperature, 60 minutes
Procedure, shortened: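 Rat (SD, 6-8 weeks) cerebral cortex membranes in 50 mM Tris-HCl pH 7.4 incubated with 1 nM [3H]prazosin for 60 min at room temperature; nonspecific binding defined with phentolamine. IC50 by probit method, converted to Ki using radioligand concentration and Scatchard-derived Kd.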

T2 sequence (P61169 whole entry): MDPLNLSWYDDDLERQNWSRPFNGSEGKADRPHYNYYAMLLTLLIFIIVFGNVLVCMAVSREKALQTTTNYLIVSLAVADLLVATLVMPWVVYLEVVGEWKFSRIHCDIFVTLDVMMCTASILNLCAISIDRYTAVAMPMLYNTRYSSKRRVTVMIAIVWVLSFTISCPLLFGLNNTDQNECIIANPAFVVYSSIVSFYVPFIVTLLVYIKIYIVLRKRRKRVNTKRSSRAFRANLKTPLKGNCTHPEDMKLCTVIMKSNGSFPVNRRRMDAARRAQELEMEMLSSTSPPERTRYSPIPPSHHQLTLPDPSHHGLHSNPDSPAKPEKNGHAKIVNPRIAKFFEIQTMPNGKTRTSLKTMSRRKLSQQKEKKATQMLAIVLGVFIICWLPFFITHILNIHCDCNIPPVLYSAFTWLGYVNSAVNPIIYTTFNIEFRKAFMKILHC
T1 sequence (P14842 whole entry): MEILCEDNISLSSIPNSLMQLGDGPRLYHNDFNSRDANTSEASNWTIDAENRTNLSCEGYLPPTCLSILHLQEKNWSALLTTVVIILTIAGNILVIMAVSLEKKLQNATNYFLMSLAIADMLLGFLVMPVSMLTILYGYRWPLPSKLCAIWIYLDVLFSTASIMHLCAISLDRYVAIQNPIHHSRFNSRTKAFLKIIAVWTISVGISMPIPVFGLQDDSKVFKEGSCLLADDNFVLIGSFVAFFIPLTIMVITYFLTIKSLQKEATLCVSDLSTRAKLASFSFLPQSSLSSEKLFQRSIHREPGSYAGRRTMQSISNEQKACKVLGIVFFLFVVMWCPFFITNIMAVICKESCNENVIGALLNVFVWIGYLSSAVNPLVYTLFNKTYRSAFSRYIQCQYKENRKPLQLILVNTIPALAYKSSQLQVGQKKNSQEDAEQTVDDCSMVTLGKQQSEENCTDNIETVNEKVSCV

Row | Compound | Ki (serotonin S2 receptor) | Ki (dopamine D2 receptor) | Ki (adrenergic α1 receptor)
1 | CCN1CCN(c2ccc(OC)c(-c3ccccc3)c2)CC1 [Example 57, 1-Ethyl-4-(3-phenyl-4-methoxy)phenylpiperazine] | > 1 µM | > 1 µM | > 1 µM
2 | CCN1CCN(c2cc(C(=O)c3ccccn3)c(OC)c(-c3ccccc3)c2)CC1 [Example 109, 1-Ethyl-4-[3-phenyl-4-methoxy-5-(2-pyridylcarbonyl)]phenylpiperazine] | 0.23 µM | > 1 µM | > 1 µM
3 | C/C=C/c1cc(N2CCN(CC)CC2)cc(-c2ccccc2)c1OC [Example 100, 1-Ethyl-4-[3-phenyl-4-methoxy-5-(1-propenyl)]phenylpiperazine hydrochloroide] | 0.827 µM | 0.0827 µM | 0.846 µM
4 | CCN1CCN(c2cc(CCC(C)=O)c(OC)c(-c3ccccc3)c2)CC1 [Example 114, 1-Ethyl-4-[3-phenyl-4-methoxy-5-(2-acetylethyl)]phenylpiperazine] | 0.151 µM | 0.165 µM | 0.569 µM
5 | CCN1CCN(c2cc(CCCF)c(OC)c(-c3ccccc3)c2)CC1 [Example 77, 1-Ethyl-4-[3-phenyl-4-methoxy-5-(3-fluoropropyl)]phenylpiperazine] | 0.0243 µM | 0.04 µM | 0.182 µM
6 | CCC(OCc1ccccn1)c1cc(N2CCN(CC)CC2)cc(-c2ccccc2)c1OC (stereo not drawn) [Example 115, 1-Ethyl-4-{3-phenyl-4-methoxy-5-[1-(2-pyridylmethoxy)propyl]}phenylpiperazine] | 0.212 µM | 0.0814 µM | > 1 µM
7 | CCCc1cc(N2CCN(CC)CC2)cc(-c2ccc(F)cc2F)c1OC [Example 91, 1-Ethyl-4-[3-(2,4-difluorophenyl)-4-methoxy-5-propyl]phenylpiperazine] | 0.0371 µM | 0.00734 µM | 0.323 µM
8 | CCN1CCN(c2cc(-c3ccccc3)c(F)c(S(=O)(=O)CC)c2)CC1 [Example 149, 1-Ethyl-4-(3-phenyl-4-fluoro-5-ethanesulfonyl)phenylpiperazine] | 0.0116 µM | 0.00624 µM | 0.0272 µM
9 | CCN1CCN(c2cc(-c3ccccc3)c(OC)c(S(=O)(=O)CC)c2)CC1 [Example 133, 1-Ethyl-4-(3-phenyl-4-methoxy-5-ethanesulfonyl)phenylpiperazine] | 0.00902 µM | 0.0287 µM | > 1 µM
10 | CCS(=O)(=O)Nc1cc(N2CCN(C)CC2)cc(-c2ccccc2Cl)c1Cl [Example 34, 1-Methyl-4-[3-(2-chlorophenyl)-4-chloro-5-ethanesulfonylamino]phenylpiperazine] | 0.00777 µM | 0.00037 µM | 0.0258 µM
11 | CCN1CCN(c2cc(-c3ccccc3)c(OC)c(C(O)c3ccccn3)c2)CC1 (stereo not drawn) [Example 112, 1-Ethyl-4-[3-phenyl-4-methoxy-5-(2-pyridyl)hydroxymethyl]phenylpiperazine] | 0.007 µM | 0.972 µM | > 1 µM
12 | CCCS(=O)(=O)Nc1cc(N2CCN(CC)CC2)cc(-c2ccccc2C=O)c1Cl [Example 196, 1-(2-Ethyl)-4-[3-(2-formylphenyl)-4-chloro-5-propanesulfonylamino]phenylpiperazine] | 0.0132 µM | 0.00552 µM | 0.744 µM
13 | CCC(=O)c1cc(N2CCN(CC)CC2)cc(-c2ccccc2)c1OC [Example 82, 1-Ethyl-4-(3-phenyl-4methoxy-5-propionyl)phenylpiperazine] | 0.0107 µM | 0.0391 µM | 0.723 µM
14 | CCCNS(=O)(=O)c1cc(N2CCN(CC)CC2)cc(-c2ccccc2C)c1Cl [Example 161, 1-Ethyl-4-[3-(2-tolyl)-4-chloro-5-propylaminosulfonyl]phenylpiperazine] | 0.0225 µM | 0.0098 µM | 0.776 µM
15 | CCCCS(=O)(=O)Nc1cc(N2CCN(C)CC2)cc(-c2ccccc2C)c1Cl [Example 30] | 0.00224 µM | 0.00086 µM | 0.0925 µM
16 | CCCCOC(CC)c1cc(N2CCN(CC)CC2)cc(-c2ccccc2)c1OC (stereo not drawn) [Example 81] | 0.241 µM | 0.0383 µM | > 1 µM
17 | CCCN1CCN(c2cc(-c3ccccc3C)c(Cl)c(C(F)CC)c2)CC1 (stereo not drawn) [Example 151, 1-Propyl-4-[3-(2-tolyl)-4-chloro-5-(1-fluoropropyl)]phenylpiperazine] | 0.0277 µM | 0.00352 µM | > 1 µM
18 | CCC(F)c1cc(N2CCN(CC)CC2)cc(-c2ccccc2C)c1Cl (stereo not drawn) [Example 27, 1-Ethyl-4-[3-(2-tolyl)-4-chloro-5-(1-fluloropropyl)]phenylpiperazine] | 0.0109 µM | 0.0112 µM | 0.455 µM

Row | Compound | Ki (serotonin S2 receptor) | Ki (dopamine D2 receptor) | Ki (adrenergic α1 receptor)
19 | CCCS(=O)(=O)Nc1cc(N2CCN(CC)CC2)cc(-c2ccccc2C)c1Cl [Example 153, 1-Ethyl-4-[3-(2-tolyl)-4-chloro-5-propanesulfonylamino]phenylpiperazine] | 0.00419 µM | 0.00153 µM | 0.0687 µM
20 | CCN1CCN(c2cc(-c3ccccc3)c(OC)c(S(=O)(=O)CCCOc3ccc(F)cc3)c2)CC1 [Example 181, 1-Ethyl-4-{3-phenyl-4-methoxy-5-[3-(4-fluorophenoxy)propane]sulfonyl}phenylpiperazine] | 0.0005 µM | 0.0262 µM | > 0.1 µM
21 | CCN1CCN(c2cc(CCF)c(OC)c(-c3ccccc3)c2)CC1 [Example 76, 1-Ethyl-4-[3-phenyl-4-methoxy-5-(2-fluoroetheyl)]phenylpiperazine] | 0.145 µM | 0.0501 µM | 0.112 µM
22 | CCCS(=O)(=O)c1cc(N2CCN(CC)CC2)cc(-c2ccccc2)c1OC [Example 170, 1-Ethyl-4-(3-phenyl-4-methoxy-5-propanesulfonyl)phenylpiperazine] | 0.00277 µM | 0.0342 µM | > 1 µM
23 | CC[C@@H](F)c1cc(N2CCN(C)CC2)cc(-c2ccccc2C)c1Cl [Example 220, 1-Methyl-4-{3-(2-tolyl)-4-chloro-5-[1-(R)-fluoropropyl]}phenylpiperazine] | 0.0379 µM | 0.00125 µM | 1.68 µM
24 | CCC(F)c1cc(N2CCN(CCO)CC2)cc(-c2ccccc2C#N)c1Cl (single isomer, unassigned) [Example 13, 1-(2-hydroxyethyl)-4-[3-(2-cyanophenyl)-4-chloro-5-(fluoropropyl)]phenylpiperazine] | 0.0249 µM | 0.00405 µM | 0.404 µM
25 | CCCS(=O)(=O)c1cc(N2CCN(C)CC2)cc(-c2ccc(F)cc2)c1OC [Example 193, 1-Methyl-4-[3-(4-fluorophenyl)-4-methoxy-5-propanesulfonyl]phenylpiperazine] | 0.00161 µM | 0.0193 µM | 0.585 µM
26 | CCCc1cc(N2CCN(CC)CC2)cc(-c2ccccc2)c1OC [Example 59, 1-Ethyl-4-(3-phenyl-4-methoxy-5-propyl)phenylpiperazine] | 0.0367 µM | 0.047 µM | 0.301 µM
27 | CCCNc1cc(N2CCN(CC)CC2)cc(-c2ccccc2)c1OC [Example 117, 1-Ethyl-4-(3-phenyl-4-methoxy-5-propylamino)phenylpiperazine] | 0.148 µM | 0.0496 µM | 0.334 µM
28 | CCC(F)c1cc(N2CCN(CCc3ccccn3)CC2)cc(-c2ccccc2C#N)c1Cl (stereo not drawn) [Example 214, 1-[2-(2-Pyridyl)ethyl]-4-[3-(2-cyanophenyl)-4-chloro-5-(1-fluoropropyl)]phenylpiperazine] | 0.00378 µM | 0.00515 µM | 0.0517 µM
29 | CCC(F)c1cc(N2CCN(CC)CC2)cc(-c2ccc(F)cc2C)c1Cl (stereo not drawn) [Example 142, 1-Ethyl-4-{3-[2-(4-fluorotolyl)]-4-chloro-5-(1-fluoropropyl)}phenylpiperazine] | 0.0205 µM | 0.00177 µM | 0.653 µM
30 | CC[C@H](F)c1cc(N2CCN(C)CC2)cc(-c2ccccc2C)c1Cl [Example 221, 1-Methyl-4-{3-(2-tolyl)-4-chloro-5-[1-(S)-fluoropropyl]}phenylpiperazine] | 0.00453 µM | 0.00345 µM | 0.486 µM
31 | CCCc1cc(N2CCN(CC)CC2)cc(-c2ccccc2F)c1OC [Example 84, 1-Ethyl-4-[3-(2-fluorophenyl)-4-methoxy-5-propyl]phenylpiperazine] | 0.0662 µM | 0.0446 µM | > 1 µM
32 | CCC(=O)c1cc(N2CCN(CC)CC2)cc(-c2ccccc2)c1Cl [Example 140, 1-Ethyl-4-(3-phenyl-4-chloro-5-propionyl)phenylpiperazine] | 0.0262 µM | 0.00297 µM | 0.0955 µM
33 | CCN1CCN(c2cc(-c3ccccc3)c(OC)c(-c3ccco3)c2)CC1 [Example 90] | 0.685 µM | 0.263 µM | > 1 µM
34 | CCN1CCN(c2cc(N)c(OC)c(-c3ccccc3)c2)CC1 [Example 110, 1-Ethyl-4-(3-phenyl-4-methoxy-5-amino)phenylpiperazine] | > 1 µM | > 1 µM | > 1 µM
35 | CCCOCc1cc(N2CCN(CC)CC2)cc(-c2ccccc2C)c1Cl [Example 168, 1-Ethyl-4-[3-(2-tolyl)-4-chloro-5-propoxymethyl]phenylpiperazine] | 0.18 µM | 0.0319 µM | > 1 µM
